Where two headings read alike, the source gives them in different places.
What was measured:
P. vulgaris HX-19 = experiment: in vitro antibacterial activity, agar plate dilution method (MIC); assay type: cell-based; details: Proteus vulgaris, HX19, 16 h, P. vulgaris HX-19; 10^6 CFU/ml; read-out: Minimum Inhibitory Concentration (MIC)
How it was run: (§1)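 MIC values (μg/ml) come from Mueller Hinton agar dilution plates inoculated with overnight-grown bacteria at 10^6 CFU/ml and kept at 37° C. for 16 hours.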

E. cloacae Nek 39 = experiment: as above; assay type: cell-based; details: Enterobacter cloacae, NEK39, 16 h, read-out: Minimum Inhibitory Concentration (MIC), *E. cloacae Nek 39, lactamase-producing strain; 10^6 CFU/ml
How it was run: as §1

K. pneumoniae PCI-602 = experiment: as above; assay type: cell-based; details: Klebsiella pneumoniae, PCI602, 16 h, read-out: Minimum Inhibitory Concentration (MIC), K. pneumoniae PCI-602; 10^6 CFU/ml
How it was run: as §1

E. coli NIHJ JC2 = experiment: as above; assay type: cell-based; details: Escherichia coli, NIHJJC2, 16 h, read-out: Minimum Inhibitory Concentration (MIC), E. coli NIHJ JC2, 10^6 CFU/ml, 37° C.
How it was run: as §1

K. pneumoniae No. 42 = experiment: as above; assay type: cell-based; details: Klebsiella pneumoniae, NO.42, 16 h, read-out: Minimum Inhibitory Concentration (MIC), *K. pneumoniae No. 42, lactamase-producing strain; 10^6 CFU/ml
How it was run: as §1

S. aureus 209P NIHJ-JC1 = experiment: as above; assay type: cell-based; details: Staphylococcus aureus, 16 h
How it was run: as §1

S. marcescens No. 16-2 = experiment: as above; assay type: cell-based; details: Serratia marcescens, NO.162, 16 h
How it was run: as §1

P. vulgaris No. 33 = experiment: as above; assay type: cell-based; details: Proteus vulgaris, NO.33, 16 h, read-out: Minimum Inhibitory Concentration (MIC), *P. vulgaris No. 33, lactamase-producing strain; 10^6 CFU/ml
How it was run: as §1

E. cloacae 963 = experiment: as above; assay type: cell-based; details: 10^6 CFU/ml
How it was run: as §1

E. coli GN5482 = experiment: as above; assay type: cell-based; details: Escherichia coli, GN5482, 16 h
How it was run: as §1

S. marcescens IAM 1184 = experiment: as above; assay type: cell-based; details: Serratia marcescens, IAM1184, 16 h, S. marcescens IAM 1184; 10^6 CFU/ml; read-out: Minimum Inhibitory Concentration (MIC)
How it was run: as §1

M. morganii GN5407 = experiment: as above; assay type: cell-based; details: Morganella morganii, GN5407, 16 h, read-out: Minimum Inhibitory Concentration (MIC), *M. morganii GN5407, lactamase-producing strain; 10^6 CFU/ml
How it was run: as §1

K. oxytoca GN10650 = experiment: as above; assay type: cell-based; details: Klebsiella oxytoca, 10^6 CFU/ml
How it was run: as §1

E. coli CSH(RE45) = experiment: microbe, parasite or virus in culture; assay type: cell-based; details: Escherichia coli, 16 h, read-out: Minimum Inhibitory Concentration (MIC), *E. coli CSH(RE45), lactamase-producing strain; 10^6 CFU/ml
How it was run: as §1

E. coli CSH2 (RK1) = experiment: microbe, parasite or virus in culture; assay type: cell-based; details: Escherichia coli, 16 h, read-out: Minimum Inhibitory Concentration (MIC), *E. coli CSH2 (RK1), lactamase-producing strain; 10^6 CFU/ml
How it was run: as §1

A. calcoaceticus No. 4 = experiment: in vitro antibacterial activity, agar plate dilution method (MIC); assay type: cell-based, Acinetobacter calcoaceticus; details: Acinetobacter calcoaceticus, NO.4, 16 h, 10^6 CFU/ml
How it was run: as §1

Ps. cepacia 23 = experiment: as above; assay type: cell-based, Pseudomonas cepacia; details: Burkholderia cepacia, 16 h; Ps. cepacia 23; 10^6 CFU/ml; read-out: Minimum Inhibitory Concentration (MIC)
How it was run: as §1

Ps. aeruginosa AKR17 = experiment: as above; assay type: cell-based, Pseudomonas aeruginosa; details: Pseudomonas aeruginosa
How it was run: as §1

Ps. aeruginosa IF03445 = experiment: as above; assay type: cell-based, Pseudomonas aeruginosa; details: Pseudomonas aeruginosa, IF03445, 16 h, read-out: Minimum Inhibitory Concentration (MIC), Ps. aeruginosa IF03445; 10^6 CFU/ml
How it was run: as §1

Ps. aeruginosa AK 109 = experiment: as above; assay type: cell-based, Pseudomonas aeruginosa; details: Pseudomonas aeruginosa, AK109, 16 h
How it was run: as §1

[1] = read-out: Minimum Inhibitory Concentration (MIC)
[2] = read-out: Minimum Inhibitory Concentration (MIC), *S. marcescens No. 16-2, lactamase-producing strain, 10^6 CFU/ml
[3] = Enterobacter cloacae, 963, 16 h, read-out: Minimum Inhibitory Concentration (MIC), E. cloacae 963
[4] = GN10650, 16 h, read-out: Minimum Inhibitory Concentration (MIC), *K. oxytoca GN10650, lactamase-producing strain
[5] = A. calcoaceticus No. 4, read-out: Minimum Inhibitory Concentration (MIC)
[6] = Ps. aeruginosa AK 109, 10^6 CFU/ml, read-out: Minimum Inhibitory Concentration (MIC)
[7] = 16 h, Ps. aeruginosa AKR17, 10^6 CFU/ml, read-out: Minimum Inhibitory Concentration (MIC)
[8] = read-out: Minimum Inhibitory Concentration (MIC), S. aureus 209P NIHJ-JC1, 10^6 CFU/ml, 37° C., 16 hours
[9] = read-out: Minimum Inhibitory Concentration (MIC), *E. coli GN5482, lactamase-producing strain, 10^6 CFU/ml

Compound	MIC (P. vulgaris HX-19)	MIC (E. cloacae Nek 39)	MIC (K. pneumoniae PCI-602)	MIC (E. coli NIHJ JC2)	MIC (K. pneumoniae No. 42)	MIC (S. aureus 209P NIHJ-JC1; [1])	MIC (S. marcescens No. 16-2; [2])	MIC (P. vulgaris No. 33)	MIC (E. cloacae 963; [3])	MIC (E. coli GN5482; [1])	MIC (S. marcescens IAM 1184)	MIC (M. morganii GN5407)	MIC (K. oxytoca GN10650; [4])	MIC (E. coli CSH(RE45))	MIC (E. coli CSH2 (RK1))	MIC (A. calcoaceticus No. 4; [5])	MIC (Ps. cepacia 23)	MIC (Ps. aeruginosa IF03445)	MIC (Ps. aeruginosa AK 109; [6])	MIC (Ps. aeruginosa AKR17; [7])	other results
Nc1nc(/C(=N/OC2(C(=O)O)CC2)C(=O)N[C@@H]2C(=O)N3C(C(=O)O)=C(CSc4nnc(-c5ccc(O)c(O)c5)o4)CS[C@H]23)cs1 [Ex. 12, disodium 7β-[2-(2-aminothiazol-4-yl)-2-(1-carboxylate-1-cyclopropoxyimino)acetamido]-3-[5-(3,4-dihydroxvphenyl)-1,3,4-oxadiazol-2-vl]thiomethyl-3-cephem-4-carboxylate]	< 0.006 µg/mL	0.025 µg/mL	< 0.006 µg/mL	0.05 µg/mL	0.025 µg/mL	12.5 µg/mL	1.56 µg/mL	0.025 µg/mL	0.05 µg/mL	0.2 µg/mL	0.0125 µg/mL	0.025 µg/mL	0.025 µg/mL	< 0.006 µg/mL	< 0.006 µg/mL	0.05 µg/mL	< 0.006 µg/mL	0.39 µg/mL	0.2 µg/mL	–	MIC (Ps. aeruginosa AKR17; AKR17, 16 h, read-out: Minimum Inhibitory Concentration (MIC)): 3.12 µg/mL
Nc1nc(/C(=N/OCc2ccccc2)C(=O)N[C@@H]2C(=O)N3C(C(=O)O)=C(CSc4nnc(-c5ccc(O)c(O)c5)o4)CS[C@H]23)cs1 [Ex. 13, sodium 7β-[2-(2-aminothiazol-4-yl)-2-benzyloxyiminoacetamido]-3-[5-(3,4-dihydroxyphenvl)-1,3,4-oxadiazol-2-yl]thiomethyl-3-cephem-4-carboxylate]	< 0.006 µg/mL	0.1 µg/mL	< 0.006 µg/mL	0.1 µg/mL	0.05 µg/mL	0.39 µg/mL	–	0.025 µg/mL	–	0.39 µg/mL	0.0125 µg/mL	0.025 µg/mL	0.39 µg/mL	1.56 µg/mL	< 0.006 µg/mL	0.2 µg/mL	0.025 µg/mL	0.39 µg/mL	–	50 µg/mL	MIC (S. marcescens No. 16-2; [1]): 3.12 µg/mL; MIC (E. cloacae 963; Enterobacter cloacae, 16 h, E. cloacae 963, read-out: Minimum Inhibitory Concentration (MIC)): 0.0125 µg/mL; MIC (Ps. aeruginosa AK 109; [1]): 0.39 µg/mL
Nc1nc(/C(=N/OCc2ccc(O)c(O)c2)C(=O)N[C@@H]2C(=O)N3C(C(=O)O)=C(CSc4nnc(-c5ccc(O)c(O)c5)o4)CS[C@H]23)cs1 [Ex. 14, sodium 7β-[2-(2-aminothiazol-4-yl)-2-(3,4-dihydroxybenzyloxyimino)acetamido]-3-[5-(3,4-dihydroxyphenyl)-1,3,4-oxadiazol-2-yl]thiomethyl-3-cephem-4-carboxylate]	0.05 µg/mL	1.56 µg/mL	< 0.006 µg/mL	0.39 µg/mL	0.39 µg/mL	–	–	0.2 µg/mL	0.39 µg/mL	3.12 µg/mL	0.1 µg/mL	0.1 µg/mL	6.25 µg/mL	3.12 µg/mL	0.05 µg/mL	–	0.1 µg/mL	12.5 µg/mL	100 µg/mL	> 100 µg/mL	MIC (S. aureus 209P NIHJ-JC1; [8]): 1.56 µg/mL; MIC (S. marcescens No. 16-2; *S. marcescens No. 16-2, lactamase-producing strain, 10^6 CFU/ml, read-out: Minimum Inhibitory Concentration (MIC)): 25 µg/mL; MIC (A. calcoaceticus No. 4; read-out: Minimum Inhibitory Concentration (MIC), A. calcoaceticus No. 4): 0.39 µg/mL
Nc1nc(/C(=N/OC(C(=O)O)c2ccccc2)C(=O)N[C@@H]2C(=O)N3C(C(=O)O)=C(CSc4nnc(-c5ccc(O)c(O)c5)o4)CS[C@H]23)cs1 (stereo partly drawn) [Ex. 15, disodium 7δ-[2-(2-aminothiazol-4-yl)-2-(α-carboxylatebenzyloxyimino)acetamido]-3-[5-(3,4-dihydroxyphenyl)-1,3,4-oxadiazol-2-yl]thiomethyl-3-cephem-4-carboxylate]	< 0.006 µg/mL	0.05 µg/mL	< 0.006 µg/mL	0.1 µg/mL	0.05 µg/mL	12.5 µg/mL	0.78 µg/mL	0.0125 µg/mL	0.025 µg/mL	–	0.025 µg/mL	0.05 µg/mL	0.0125 µg/mL	3.12 µg/mL	< 0.006 µg/mL	0.05 µg/mL	< 0.006 µg/mL	0.78 µg/mL	–	–	MIC (E. coli GN5482; [9]): 1.56 µg/mL; MIC (Ps. aeruginosa AKR17; AKR17, 16 h, read-out: Minimum Inhibitory Concentration (MIC), Ps. aeruginosa AKR17, 10^6 CFU/ml): 0.78 µg/mL; MIC (Ps. aeruginosa AK 109; [1]): 0.39 µg/mL
Nc1nc(/C(=N/Oc2ccccc2)C(=O)N[C@@H]2C(=O)N3C(C(=O)O)=C(CSc4nnc(-c5ccc(O)c(O)c5)o4)CS[C@H]23)cs1 [Ex. 22, sodium 7β-[2-(2-aminothiazol-4-yl)2phenoxyiminoacetamido]-3-[5-(3,4-dihydroxyphenyl)-1,3,4-oxadiazol-2-yl]thiomethyl-3-cephem-4-carboxylate]	< 0.006 µg/mL	0.05 µg/mL	< 0.006 µg/mL	0.39 µg/mL	0.0125 µg/mL	–	0.78 µg/mL	0.025 µg/mL	0.025 µg/mL	–	0.05 µg/mL	0.0125 µg/mL	–	< 0.006 µg/mL	0.0125 µg/mL	0.2 µg/mL	0.025 µg/mL	1.56 µg/mL	–	> 100 µg/mL	MIC (S. aureus 209P NIHJ-JC1; [8]): 0.78 µg/mL; MIC (E. coli GN5482; [9]): 0.78 µg/mL; MIC (K. oxytoca GN10650; 16 h, *K. oxytoca GN10650, lactamase-producing strain, read-out: Minimum Inhibitory Concentration (MIC)): 100 µg/mL; MIC (Ps. aeruginosa AK 109; read-out: Minimum Inhibitory Concentration (MIC), Ps. aeruginosa AK 109, 10^6 CFU/ml): 1.56 µg/mL

— patent US5061794A, “Cephalosporin derivatives, and antibacterial agents” (priority 1986, dated 1991)
